Test results: patent publication US8377900B2 (National Research Council of Canada, priority 2003, dated 2013)

Key:
[1] = cited from earlier work
[2] = system: S92G-mutated chimeric λR-GyrB transactivator; format: cell-based, Human
From the text: FIG. 5A. […] Results represent two independent experiments performed in triplicate.
Results shown are the means for triplicate determinations and representative of 3 experiments.

293A cells = format: cell-based, Human; conditions: 25 μM, cell growth rate and CMV-GFP expression
Procedure: At a concentration of 5 μM novobiocin, however, over 98% of the coumermycin-induced luciferase expression was suppressed (FIG. 5A).

[3] = biological target: T1, chimeric transactivator λR-GyrB-NFκB (UniProt P03034+P0AES6); assay: Coumermycin-induced reporter (Luc/GFP) expression, transient transfection of 293A cells with wild type transactivator; format: cell-based, Human; conditions: 5 nM, 40 hr
T1 construct: the GyrB domain (codons 2-220 of bacterial DNA gyrase); expressed in transfected cells; host or cells: human embryonic kidney 293A cells, transient transfection with pGyrB plus reporter plasmid, or with pCUR
Procedure: FIG. 2A. Either two plasmids pGFP and pGyrB (double plasmids, each 0.5 μg), or one plasmid pCUR (1.0 μg) containing the GFP gene (single plasmid), were transiently transfected into 293A cells.
FIG. 2B. Either two plasmids pLuc and pGyrB (DP, each 0.2 μg), or one plasmid pCUR (0.4 μg) containing the Luc gene (SP), were transiently transfected into 293A cells, respectively. […] The results shown are the means for triplicate determinations and representative of 3 experiments. The transfection efficiencies were normalized by co-transfection of pRL-TK vector constitutively producing Renilla luciferase.
Exponentially growing 293A cells were seeded at 8×10^5 in 60 mm dishes the day prior to transfection and co-transfected with 5 μg of XmnI linearized pLuc and 0.2 μg of pcDNA3.1 hygromycin using the SuperFect kit (Qiagen). Alternatively, the cells were transfected with PvuI linearized pCUR. Two days following transfection, the cells were replaced into 100 mm dishes, and selected with appropriate antibiotics for 2 weeks. Single clone was selected for further assay. […] Luc activity was determined using 20 μl of total cell lysate using the Dual-Luciferase Reporter Assay System (Promega). The reporter firefly luciferase activities were measured and normalized by the transfection efficiencies estimated by the activities of Renilla luciferase constitutively expressed from cotransfected pRL-TK. […]

[4] = system: S92G-mutated chimeric λR-GyrB transactivator; assay: Coumermycin-dependent luciferase activity in stable 293A clones (pCUR, S92G transactivator); format: cell-based, Human
Procedure: FIG. 4B. […] Results represent two independent experiments performed in triplicate.
Alternatively, the cells were transfected with PvuI linearized pCUR. Two days following transfection, the cells were replaced into 100 mm dishes, and selected with appropriate antibiotics for 2 weeks. Single clone was selected for further assay. […] After 40 hrs induction, cells were lysed in 100 μl lysis buffer (Promega) for 20 min. Luc activity was determined using 20 μl of total cell lysate using the Dual-Luciferase Reporter Assay System (Promega). The reporter firefly luciferase activities were measured and normalized by the transfection efficiencies estimated by the activities of Renilla luciferase constitutively expressed from cotransfected pRL-TK. For inducible expression of the Bax gene, wild-type K562 cells were transfected using electroporation with 5 μg DNA of the linearized pBax and pGyrB. Cell lines were selected with hygromycin and positive clones were screened in the induced and non-induced states using anti-Bax antibody visualized by Western blot.
Cells were stably transfected with pCUR containing the Luc gene. […] Values are means of three independent luciferase determinations from three independently cell cultures.
The kinetic characteristics of this inducible system were further examined in stable cell lines.

K562-Bax cells = assay: Flow cytometric analysis of apoptosis (Annexin-V) in K562-Bax cells; format: cell-based, Human; conditions: 5 nM coumermycin, 36 hr; 6.7% without treatment
From the text: (§1) It has been reported that high-level expression of Bax (Bcl2-associated X protein) elicits apoptosis in a variety of human cancer cells (17). In malignant hematopoietic cells, including k562, Bax overexpression leads to apoptosis of the transfected cells through cytochrome C release (18). To evaluate the tightness of gene expression regulated by the chimeric transactivator, the apoptotic Bax gene was cloned into the transgene-expression cassette from the two-plasmid induction system previously described. […] Stable clones harboring the both plasmids were isolated and characterized following induction.

K562-Bax 65 cells = assay: Western blot of Bax expression and cytosolic cytochrome C in clone K562-Bax 65; format: cell-based, Human; conditions: 5 nM coumermycin, 36 hr
From the text: as §1

CO[C@@H]1[C@@H](OC(N)=O)[C@@H](O)[C@H](Oc2ccc3c(O)c(NC(=O)c4ccc(O)c(CC=C(C)C)c4)c(=O)oc3c2C)OC1(C)C [novobiocin]
in vivo half-life [1]: 6 h
serum half-life ([1]; serum, in vivo): 6 h
extent of switch-off of coumermycin-induced luciferase expression ([2]; 2.5 μM novobiocin added after 11 hr induction with 5 nM coumermycin): nearly completely switched off
suppression of coumermycin-induced luciferase expression ([2]; 5 μM novobiocin with 5 nM coumermycin, 40 hr): over 98%
cellular toxicity (293A cells): do not exert any detectable cellular toxicity

coumermycin
GFP expression ([3]; both plasmid systems): greatly induced
induction of luciferase activity ([3]; wild type λR, double- and single-plasmid cassettes): around 50 fold
induction time at which appreciable luciferase activity was detected ([4]; 5 nM coumermycin, clone S92G-5): 5 h
induction time for maximal inducibility ([4]; 5 nM coumermycin, clone S92G-5): 24 h
higher doses causing reduced induction of gene expression ([4]; FIG. 4A): > 0.5 µM
concentration at which inducibility was decreased ([4]; clone S92G-5, 40 hr): 50 nM
concentration for maximal induction ([4]; clone S92G-5, 40 hr): 2.5 to 5 nM
lowest concentration giving apparent induction of luciferase expression ([4]; clone S92G-5, 40 hr): approximately 0.5 ng/ml
lowest concentration giving appreciable/apparent induction of gene expression ([4]; clone S92G-5, 40 hr, luciferase): 0.5 nM
Luciferase Activity With Coum ([4]; stable clone 5, coumermycin 5 nM): 47,460 ± 447 Arbitrary Light Units/μg protein
Activation factor ([4]; stable clone 5, with vs without coumermycin 5 nM): 5.1 × 10^3
Luciferase Activity With Coum ([4]; stable clone 8, coumermycin 5 nM): 52,408 ± 2,254 Arbitrary Light Units/μg protein
Activation factor ([4]; stable clone 8, with vs without coumermycin 5 nM): 1.5 × 10^3
Luciferase Activity With Coum ([4]; stable clone 10, coumermycin 5 nM): 1,591 ± 100 Arbitrary Light Units/μg protein
Activation factor ([4]; stable clone 10, with vs without coumermycin 5 nM): 3.2 × 10^3
Luciferase Activity With Coum ([4]; stable clone 18, coumermycin 5 nM): 7,446 ± 36 Arbitrary Light Units/μg protein
Activation factor ([4]; stable clone 18, with vs without coumermycin 5 nM): 5.8 × 10^3
Luciferase Activity With Coum ([4]; stable clone 23, coumermycin 5 nM): 8,237 ± 204 Arbitrary Light Units/μg protein
Activation factor ([4]; stable clone 23, with vs without coumermycin 5 nM): over 10,000
Activation factor ([4]; stable clone 23, with vs without coumermycin 5 nM, listed as Coumermycin): 1.4 × 10^4
Luciferase Activity With Coum ([4]; stable clone 28, coumermycin 5 nM): 12,292 ± 550 Arbitrary Light Units/μg protein
Activation factor ([4]; stable clone 28, with vs without coumermycin 5 nM): 5.1 × 10^3
Luciferase Activity With Coum ([4]; stable clone 34, coumermycin 5 nM): 46,980 ± 1,300 Arbitrary Light Units/μg protein
Activation factor ([4]; stable clone 34, with vs without coumermycin 5 nM): 5.8 × 10^3
Luciferase Activity With Coum ([4]; stable clone 44, coumermycin 5 nM): 30,151 ± 2020 Arbitrary Light Units/μg protein
Activation factor ([4]; stable clone 44, with vs without coumermycin 5 nM): over 10,000
Activation factor ([4]; stable clone 44, with vs without coumermycin 5 nM, listed as Coumermycin): 1.3 × 10^4
Luciferase Activity With Coum ([4]; stable clone 45, coumermycin 5 nM): 1,909 ± 24 Arbitrary Light Units/μg protein
Activation factor ([4]; stable clone 45, with vs without coumermycin 5 nM): 1.6 × 10^3
Luciferase Activity With Coum ([4]; stable clone 47, coumermycin 5 nM): 8,528 ± 43 Arbitrary Light Units/μg protein
Activation factor ([4]; stable clone 47, with vs without coumermycin 5 nM): 2.1 × 10^3
fraction of apoptotic cells (K562-Bax cells): 45.5%
Bax expression (Western blot) (K562-Bax 65 cells): greatly induced
cytochrome c release from mitochondria (Western blot) (K562-Bax 65 cells): released in substantial amounts
